The values that follow come from ChEMBL document CHEMBL4627252, “Synthesis and biological evaluation of bis-N2,N2'-(4-hydroxycoumarin-3-yl)ethylidene]-2,3-dihydroxysuccinodihydrazides” (Bioorg Med Chem Lett, 2020).

Values after ≈ are worked out from the molar mass of the structure shown.

Data set [1] in a line: Cytotoxicity against human HeLa cells assessed as cell viability at 20 uM incubated for 24 hrs by resazurin dye base fluorescence analysis relative to control. It is filed as cell-based. Conditions: read-out: Activity.
A further data set deals with Plasmodium falciparum. The data set can be described thus: Antimalarial activity against Plasmodium falciparum 3D7 infected in human erythrocytes assessed as parasite viability at 20 uM incubated for 48 hrs by parasite LDH release based colorimetric assay relative to control. It is filed as functional.
Data set [2] relates to Mycobacterium tuberculosis. The data set can be described thus: Antimycobacterial activity against Mycobacterium tuberculosis H37Rv assessed as inhibition of bacterial growth by measuring calculated MIC90 measured after 14 days by green fluorescent protein based microplate assay. It is filed as functional. The note with it: 336 h.
Data set [3] concerns Trypanosoma brucei brucei. Kind of data set: Antitrypanosomal activity against Trypanosoma brucei brucei assessed as parasite viability at 20 uM relative to control. It is filed as functional.
Data set [4] concerns the target Human immunodeficiency virus type 1 integrase (Human immunodeficiency virus 1, UniProt Q7ZJM1). The data set can be described thus: Inhibition of HIV-1 integrase.
The subject of data set [5] is Mycobacterium tuberculosis. Kind of data set: Antimycobacterial activity against Mycobacterium tuberculosis H37Rv assessed as inhibition of bacterial growth by measuring visual MIC90 measured after 14 days by green fluorescent protein based microplate assay. It is filed as functional. The note with it: 336 h.
Data set [6] has as its target Human immunodeficiency virus type 1 protease (Human immunodeficiency virus 1) (UniProt Q72874). The data set can be described thus: Inhibition of HIV-1 protease at 20 uM relative to control.
For the next data set, the system named is HeLa. Kind of data set: Cytotoxicity against human HeLa cells assessed as inhibition of cell viability incubated for 24 hrs by resazurin dye based fluorescence analysis.
Data set [7] relates to Trypanosoma brucei brucei. Kind of data set: Antitrypanosomal activity against Trypanosoma brucei brucei assessed as inhibition of parasite viability. It is filed as functional, organism-based.

Chain of Human immunodeficiency virus type 1 integrase (Q7ZJM1 whole entry): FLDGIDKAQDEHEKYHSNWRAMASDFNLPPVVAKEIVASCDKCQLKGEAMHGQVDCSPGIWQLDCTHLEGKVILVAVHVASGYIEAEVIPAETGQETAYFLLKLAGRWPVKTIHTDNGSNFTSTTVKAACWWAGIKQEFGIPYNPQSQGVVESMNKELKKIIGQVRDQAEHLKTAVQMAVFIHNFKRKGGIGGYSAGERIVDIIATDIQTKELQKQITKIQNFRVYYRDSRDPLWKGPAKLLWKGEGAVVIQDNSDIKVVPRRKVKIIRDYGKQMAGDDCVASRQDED

For `C/C(=N\NC(=O)C(O)C(O)C(=O)N/N=C(\C)c1c(O)c2ccccc2oc1=O)c1c(O)c2ccccc2oc1=O` (racemic), the viability at 24 h, 20 µM in [1] was 78.4%. The Activity in the data set on Plasmodium falciparum is given as 90.7%; in data set [3] it was 42.7%. The MIC90 in data set [2] and in data set [5] was more than 125 µM throughout. The same molecule gave an IC50 in [4] of 3.5 µM. The inhibition in data set [6] amounted to 0%.
`CC[C@H]1CN2CCc3cc(OC)c(OC)cc3[C@@H]2C[C@@H]1C[C@H]1NCCc2cc(OC)c(OC)cc21` [EMETINE]: the IC50 with HeLa came to 0.013 µM.
With `CO[C@H]1/C=C/O[C@@]2(C)Oc3c(C)c(O)c4c(O)c(c(/C=N/N5CCN(C)CC5)c(O)c4c3C2=O)NC(=O)/C(C)=C\C=C\[C@H](C)[C@H](O)[C@@H](C)[C@@H](O)[C@@H](C)[C@H](OC(C)=O)[C@@H]1C` [RIFAMPIN], the MIC90 is 0.007 µM (≈ 0.00576 µg/mL) in data set [2] and 0.019 µM (≈ 0.0156 µg/mL) in [5].
With `C/C(=N\NC(=O)C(O)C(O)C(=O)N/N=C(\C)c1c(O)c2c(ccc3ccccc32)oc1=O)c1c(O)c2c(ccc3ccccc32)oc1=O` (racemic), the viability at 24 h, 20 µM in data set [1] was 98.1%. The Activity (with Plasmodium falciparum; in [3]) was 100% each time. Moreover, the values for the MIC90 in data set [2] and in data set [5] were 29.5 µM (≈ 19.2 µg/mL) and 31.2 µM (≈ 20.3 µg/mL), respectively. The same molecule gave an inhibition in data set [6] of 0%.
As for `C/C(=N\NC(=O)C(O)C(O)C(=O)N/N=C(\C)c1c(O)c2cc(F)ccc2oc1=O)c1c(O)c2cc(F)ccc2oc1=O` (racemic), the viability at 24 h, 20 µM in data set [1] came to 84.6%. For the same molecule, the results for the Activity (in the data set on Plasmodium falciparum; in data set [3]) were 92.8% and 32.8%, respectively. The MIC90 in [2] and in [5] was more than 125 µM in each case. Also, the inhibition in data set [6] was determined as 0%.
For the molecule `C/C(=N\NC(=O)C(O)C(O)C(=O)N/N=C(\C)c1c(O)c2cc(C)ccc2oc1=O)c1c(O)c2cc(C)ccc2oc1=O` (racemic), the viability at 24 h, 20 µM in [1] amounted to 85.3%. For the same molecule, the Activity (with Plasmodium falciparum; in data set [3]) was 100% each time. Besides, the MIC90 in [2] and in data set [5] was more than 125 µM throughout. In data set [6], this molecule gave an inhibition of 8.3%.
With `N=C(N)c1ccc(OCCCCCOc2ccc(C(=N)N)cc2)cc1` [PENTAMIDINE], the IC50 in data set [7] stood at 0.039 µM.
For `C/C(=N\NC(=O)C(O)C(O)C(=O)N/N=C(\C)c1c(O)c2cc(Cl)ccc2oc1=O)c1c(O)c2cc(Cl)ccc2oc1=O` (racemic), in data set [1], the viability at 24 h, 20 µM was 100%. Further, the Activity in the data set on Plasmodium falciparum came to 93.8%; in data set [3], 44.6%. For the same molecule, the MIC90 in data set [2] is 54.2 µM (≈ 33.6 µg/mL); in data set [5], 31.2 µM (≈ 19.4 µg/mL). In data set [6], this molecule showed an inhibition of 0%.
Consider `COc1ccc2oc(=O)c(/C(C)=N/NC(=O)C(O)C(O)C(=O)N/N=C(\C)c3c(O)c4cc(OC)ccc4oc3=O)c(O)c2c1` (racemic), for which the viability at 24 h, 20 µM in data set [1] came to 84.6%. The Activity (in the data set with Plasmodium falciparum; in data set [3]) was 100% throughout. Further, the MIC90 in data set [2] and in data set [5] was more than 125 µM in each case. Moreover, the inhibition in [6] was 0%.
On to `C/C(=N\NC(=O)C(O)C(O)C(=O)N/N=C(\C)c1c(O)c2cc(Br)ccc2oc1=O)c1c(O)c2cc(Br)ccc2oc1=O` (racemic), for which the viability at 24 h, 20 µM in data set [1] stood at 100%. Also, the Activity (in the data set on Plasmodium falciparum; in data set [3]) was 100% throughout. Besides, the values for the MIC90 in data set [2] and in data set [5] were 18.9 µM (≈ 13.4 µg/mL) and 15.6 µM (≈ 11.1 µg/mL), respectively. This molecule had an inhibition in [6] of 0%.
